Some results are limits rather than exact numbers.

In the assay the test system is T-cell proliferation in canine whole blood (ConA and canine IL-2 stimulated). As to the kind of experiment: Canine in vitro T-cell Proliferation Assay. It is filed as cell-based, beagle dogs. To be noted: Canis lupus familiaris, ConA 1 μg/ml + canine IL-2 50 ng/ml, tritiated thymidine incorporation, average assay results. As to the method: Introduction: T-cell activation plays a key role in a variety of inflammatory and autoimmune disorders as well as asthma, allergies and pruritus. Since T-cell activation can, in part, can be triggered by cytokines that signal through the JAK-STAT pathway, a JAK inhibitor could be effective against such diseases involving aberrant T-cell activation. […] Methods: Canine whole blood is collected in heparin sulfate tubes from beagle dogs. Whole blood (20 μL) is plated in 96-well plates (Costar) with 180 μL of DMEM complete medium (Dublecco's Modified Eagle Medium; 10% heat inactivated fetal bovine serum; 100 u/ml penicillin; 100 ug/mL streptomycin, from Gibco) containing vehicle control or test compound (0.001 to 10 μM), concanavalin A (ConA; 1 μg/ml), and canine interleukin-2 (IL-2; 50 ng/ml). Wells containing whole blood, medium with vehicle control and no ConA or IL-2 are used as background (BKG) controls. Plates are incubated at 37° C. for 48 hrs. Tritiated thymidine, 0.4 μCi/well (Perkin Elmer), is added for 20 additional hours. Plates are frozen and then thawed, washed and filtered using a Brandel MLR-96 cell harvester and prewet filter mats (Wallac 1205-401, Perkin Elmer). Filters are dried at 60° C. for one hour (Precision 16EG convection oven) and placed into filter sample bags (Wallac 1205-411, Perkin Elmer) with 10 mL of scintillant (Wallac 1205-440, Perkin Elmer). Sealed filters are counted on a LKB Wallac 1205 Betaplate liquid scintillation counter. Data are collected via Gterm Betaplate program v1.1 (Wallac copyright 1989-1990) and transformed into percent inhibition, calculated using the following formula: […]
As to `Cc1noc(NC(=O)N2CC[C@@H](C)[C@@H](N(C)c3ncnc4[nH]ccc34)C2)c1C#N` [Example 3, (3R,4R)-N-(4-cyano-3-methylisoxazol-5-yl)-4-methyl-3-[methyl(7H-pyrrolo[2,3-d]pyrimidin-4-yl)amino]piperidine-1-carboxamide], the IC50 is above 10000 nM.

For the compound `C[C@@H]1CCN(C(=O)Nc2nncs2)C[C@@H]1N(C)c1ncnc2[nH]ccc12` [Example 1, (3R,4R)-4-methyl-3-[methyl(7H-pyrrolo[2,3-d]pyrimidin-4-yl)amino]-N-(1,3,4-thiadiazol-2-yl)piperidine-1-carboxamide], the IC50 was determined as 28.5 nM.

Turning to `COc1nsc(NC(=O)N2CC[C@@H](C)[C@@H](N(C)c3ncnc4[nH]ccc34)C2)n1` [Example 2, (3R,4R)-N-(3-methoxy-1,2,4-thiadiazol-5-yl)-4-methyl-3-[methyl(7H-pyrrolo[2,3-d]pyrimidin-4-yl)amino]piperidine-1-carboxamide], the half-maximal inhibitory concentration (IC50) was 50 nM.

With `CSc1nc(NC(=O)N2CC[C@@H](C)[C@@H](N(C)c3ncnc4[nH]ccc34)C2)n(C)n1` [Example 4, (3R,4R)-4-methyl-N-[1-methyl-3-(methylsulfanyl)-1H-1,2,4-triazol-5-yl]-3-[methyl(7H-pyrrolo[2,3-d]pyrimidin-4-yl)amino]piperidine-1-carboxamide], the half-inhibitory concentration (IC50) was above 10000 nM.

In general, IC50 refers to the midpoint of a concentration-inhibition curve.

Source of the values: patent publication US20120309776A1, “PYRROLO[2,3-D]PYRIMIDINE UREA COMPOUNDS AS JAK INHIBITORS” (Pfitzer Inc., priority 2010, published 2012).
